Measurements published in PubChem BioAssay AID248 (DTP/NCI, 2004).
“And” between values parts separate entries of the source, which are not always exact repeats. Equal entries are not always repeated. Toxic doses and inconclusive results are not listed. Cut-off read from the data, not from the text of the source: active = T/C of 150% or more; inactive = T/C below 125%.

Test system: L1210 leukemia ip in BDF1 mice, survival T/C
Experiment: NCI In Vivo Anticancer Drug Screen. Data for tumor model L1210 Leukemia (intraperitoneal) in B6D2F1 (BDF1) mice
Conditions: endpoint: mean survival time, higher = longer survival
In short: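 Mice bearing the transplanted tumor received compound or vehicle. Survival of the treated group was divided by that of the vehicle-treated control group to give the ratio.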

[1] = dose: 100.0 mg/kg/injection, schedule: Q01DX001 (ip), vehicle: saline
[2] = dose: 100.0 mg/kg/injection, schedule: Q04DX002 (ip), vehicle: saline with Tween-80
[3] = dose: 200.0 mg/kg/injection, schedule: Q01DX001 (ip), vehicle: saline
[4] = dose: 200.0 mg/kg/injection, schedule: Q04DX002 (ip), vehicle: saline with Tween-80
[5] = dose: 400.0 mg/kg/injection, schedule: Q04DX002 (ip), vehicle: saline with Tween-80
[6] = dose: 100.0 mg/kg/injection, schedule: Q01DX009 (ip), vehicle: Klucel (hydroxypropylcellulose) (HPC)
[7] = dose: 100.0 mg/kg/injection, schedule: Q04DX003 (ip), vehicle: Klucel (hydroxypropylcellulose) (HPC)
[8] = dose: 200.0 mg/kg/injection, schedule: Q01DX009 (ip), vehicle: Klucel (hydroxypropylcellulose) (HPC)
[9] = dose: 200.0 mg/kg/injection, schedule: Q04DX003 (ip), vehicle: Klucel (hydroxypropylcellulose) (HPC)
[10] = dose: 400.0 mg/kg/injection, schedule: Q01DX009 (ip), vehicle: Klucel (hydroxypropylcellulose) (HPC)
[11] = dose: 400.0 mg/kg/injection, schedule: Q04DX003 (ip), vehicle: Klucel (hydroxypropylcellulose) (HPC)
[12] = dose: 100.0 mg/kg/injection, schedule: Q01DX001 (ip), vehicle: saline with Tween-80
[13] = dose: 100.0 mg/kg/injection, schedule: Q01DX009 (ip), vehicle: saline with Tween-80
[14] = dose: 200.0 mg/kg/injection, schedule: Q01DX001 (ip), vehicle: saline with Tween-80
[15] = dose: 200.0 mg/kg/injection, schedule: Q01DX009 (ip), vehicle: saline with Tween-80
[16] = dose: 400.0 mg/kg/injection, schedule: Q01DX001 (ip), vehicle: saline with Tween-80
[17] = dose: 400.0 mg/kg/injection, schedule: Q01DX009 (ip), vehicle: saline with Tween-80
[18] = dose: 400.0 mg/kg/injection, schedule: Q01DX001 (ip), vehicle: saline
[19] = dose: 100.0 mg/kg/injection, schedule: Q04DX003 (ip), vehicle: saline with Tween-80
[20] = dose: 200.0 mg/kg/injection, schedule: Q04DX003 (ip), vehicle: saline with Tween-80
[21] = dose: 400.0 mg/kg/injection, schedule: Q04DX003 (ip), vehicle: saline with Tween-80
[22] = dose: 12.5 mg/kg/injection, schedule: Q01DX009 (ip), vehicle: saline
[23] = dose: 25.0 mg/kg/injection, schedule: Q01DX009 (ip), vehicle: saline
[24] = dose: 100.0 mg/kg/injection, schedule: Q04DX003 (ip), vehicle: saline
[25] = dose: 200.0 mg/kg/injection, schedule: Q04DX003 (ip), vehicle: saline
[26] = dose: 400.0 mg/kg/injection, schedule: Q04DX003 (ip), vehicle: saline

Measured: T/C

NC1C(=O)Nc2cc(O)c(C(=O)O)cc21 (stereo not drawn)
inactive: dose: 100.0 mg/kg/injection, schedule: Q01DX001 (ip), vehicle: gum acacia 100 % of control | dose: 200.0 mg/kg/injection, schedule: Q01DX001 (ip), vehicle: gum acacia 100 % of control | dose: 400.0 mg/kg/injection, schedule: Q01DX001 (ip), vehicle: gum acacia 97 % of control

CC1(C)C2CC=C(CCO)C1C2 (stereo not drawn)
inactive: [1] 98 % of control | [2] 98 % of control | [3] 93 % of control | [4] 110 % of control | [5] 93 % of control

COc1ccc2c(c1O)C13CCN(C)C(C2)C1CCC(O)C3 (stereo not drawn)
inactive: [6] 95 % of control | [7] 104 % of control | [8] 101 % of control | [9] 88 % of control | [10] 98 % of control | [11] 86 % of control

COc1cccc(NC(=S)Nc2cccc(OC)c2)c1
inactive: [12] 108 % of control | [13] 95 % of control | [2] 91 % of control | [14] 104 % of control | [15] 92 % of control and 100 % of control | [4] 94 % of control and 96 % of control | [16] 101 % of control | [17] 90 % of control | [5] 104 % of control and 88 % of control

CN=C(NCCc1ccccc1)c1ccc(NC(=O)c2ccc(C(=O)Nc3ccc(C(=NC)NCCc4ccccc4)cc3)cc2)cc1
inactive: dose: 3.75 mg/kg/injection, schedule: Q01DX Z (ip), vehicle: saline 102 % of control | dose: 7.5 mg/kg/injection, schedule: Q01DX Z (ip), vehicle: saline 105 % of control

CCCCSc1n[nH]c(=O)[nH]c1=O
inactive: [1] 113 % of control | [3] 92 % of control | [18] 95 % of control

C[N+]1(C)C2CCC1[C@H](C(=O)[O-])[C@@H](O)C2 (stereo partly drawn)
inactive: [1] 103 % of control | [3] 93 % of control | [18] 98 % of control

CCCCN(CCCC)C(=O)c1ccccc1C(=O)O
inactive: dose: 75.0 mg/kg/injection, schedule: Q01DX001 (ip), vehicle: saline 95 % of control | dose: 100.0 mg/kg/injection, schedule: Q04DX002 (ip), vehicle: Klucel (hydroxypropylcellulose) (HPC) 95 % of control | dose: 150.0 mg/kg/injection, schedule: Q01DX001 (ip), vehicle: saline 104 % of control | dose: 200.0 mg/kg/injection, schedule: Q04DX002 (ip), vehicle: Klucel (hydroxypropylcellulose) (HPC) 95 % of control | dose: 300.0 mg/kg/injection, schedule: Q01DX001 (ip), vehicle: saline 103 % of control

C=CCCCCCCCCO
inactive: dose: 50.0 mg/kg/injection, schedule: Q01DX001 (ip), vehicle: saline 98 % of control | [1] 95 % of control | [3] 95 % of control

Cc1cc(Cl)ccc1OC(=O)Nc1c(C)cccc1C
inactive: [6] 101 % of control | [7] 98 % of control | [8] 101 % of control | [9] 103 % of control | [10] 89 % of control | [11] 101 % of control

OCC(F)(F)C(F)(F)C(F)(F)CO
inactive: dose: 100.0 mg/kg/injection, schedule: Q01DX009 (ip), vehicle: saline 87 % of control | dose: 200.0 mg/kg/injection, schedule: Q01DX009 (ip), vehicle: saline 90 % of control | dose: 400.0 mg/kg/injection, schedule: Q01DX009 (ip), vehicle: saline 100 % of control

CCOC(=O)c1csc(CNC(=O)c2ccccc2)n1
inactive: [12] 107 % of control | [13] 100 % of control | [19] 97 % of control | [14] 98 % of control | [15] 97 % of control | [20] 95 % of control | [16] 104 % of control | [17] 103 % of control | [21] 93 % of control

COC(=O)c1ccc(C(=O)OC)c(=O)[nH]1
inactive: [6] 109 % of control | [7] 103 % of control | [8] 101 % of control | [9] 102 % of control | [10] 102 % of control | [11] 97 % of control

C=C(Cl)CSc1ccccc1
inactive: [1] 103 % of control | [3] 103 % of control | [18] 105 % of control

Cc1cc2c(cc1C)NC(=O)CC(c1ccccc1)=N2
inactive: dose: 100.0 mg/kg/injection, schedule: Q01DX001 (ip), vehicle: carboxymethylcellulose (CMC) 98 % of control | dose: 200.0 mg/kg/injection, schedule: Q01DX001 (ip), vehicle: carboxymethylcellulose (CMC) 93 % of control | dose: 400.0 mg/kg/injection, schedule: Q01DX001 (ip), vehicle: carboxymethylcellulose (CMC) 98 % of control

CC(=O)Oc1cc(C(C)C)c(OCCN(C)C)cc1C
inactive: dose: 6.25 mg/kg/injection, schedule: Q01DX009 (ip), vehicle: saline 94 % of control | [22] 98 % of control | [23] 100 % of control

C#CC(=O)OCC#CCOC(=O)C#C
inactive: dose: 1.56 mg/kg/injection, schedule: Q01DX009 (ip), vehicle: saline with Tween-80 111 % of control | dose: 3.12 mg/kg/injection, schedule: Q01DX009 (ip), vehicle: saline with Tween-80 101 % of control | dose: 6.25 mg/kg/injection, schedule: Q01DX009 (ip), vehicle: saline with Tween-80 87 % of control and 90 % of control

CCSc1nc(N)nc2c1ncn2C
inactive: dose: 100.0 mg/kg/injection, schedule: Q01DX001 (ip), vehicle: acetone 94 % of control | dose: 200.0 mg/kg/injection, schedule: Q01DX001 (ip), vehicle: acetone 91 % of control | dose: 400.0 mg/kg/injection, schedule: Q01DX001 (ip), vehicle: acetone 90 % of control

CCCCCCCCCCCCCCCCOc1ccc(C)cc1
inactive: [19] 100 % of control | [20] 103 % of control | [21] 97 % of control

COC(=O)C1C(c2ccc(-c3ccccc3)cc2)N1C1CCCCC1 (stereo not drawn)
inactive: dose: 100.0 mg/kg/injection, schedule: Q01DX001 (ip), vehicle: Klucel (hydroxypropylcellulose) (HPC) 96 % of control | [7] 104 % of control | dose: 200.0 mg/kg/injection, schedule: Q01DX001 (ip), vehicle: Klucel (hydroxypropylcellulose) (HPC) 95 % of control | [9] 107 % of control | dose: 400.0 mg/kg/injection, schedule: Q01DX001 (ip), vehicle: Klucel (hydroxypropylcellulose) (HPC) 93 % of control | [11] 98 % of control

CC(C)C1(C(C)C)S(=O)(=O)CCS1(=O)=O
inactive: [1] 98 % of control | [3] 93 % of control | [18] 102 % of control

O=C(/C=C/c1ccccc1)N/N=C/c1cccs1
inactive: [6] 86 % of control | [8] 88 % of control

COc1ccc(-n2c(=S)[nH]c3ccccc3c2=O)cc1
inactive: dose: 100.0 mg/kg/injection, schedule: Q01DX009 (ip), vehicle: other 107 % of control | [24] 95 % of control | dose: 200.0 mg/kg/injection, schedule: Q01DX009 (ip), vehicle: other 96 % of control | [25] 91 % of control | dose: 400.0 mg/kg/injection, schedule: Q01DX009 (ip), vehicle: other 102 % of control | [26] 91 % of control

NC(CCl)=NCCCCN=C(N)CCl
inactive: [22] 108 % of control | dose: 12.5 mg/kg/injection, schedule: Q04DX002 (ip), vehicle: saline 100 % of control | [23] 101 % of control | dose: 25.0 mg/kg/injection, schedule: Q04DX002 (ip), vehicle: saline 124 % of control

Cc1ccc([As](=O)(O)O)cc1F
inactive: dose: 1.56 mg/kg/injection, schedule: Q01DX009 (ip), vehicle: Klucel (hydroxypropylcellulose) (HPC) 94 % of control | dose: 3.13 mg/kg/injection, schedule: Q01DX009 (ip), vehicle: Klucel (hydroxypropylcellulose) (HPC) 94 % of control | dose: 6.25 mg/kg/injection, schedule: Q01DX009 (ip), vehicle: Klucel (hydroxypropylcellulose) (HPC) 88 % of control

CC1(C(=O)O)C2CCC(C2)C1C(=O)O (stereo not drawn)
inactive: [24] 107 % of control | [25] 102 % of control | [26] 105 % of control
